# According to US20100266623A1, “SYNTHETIC, SELF ADJUVANTING VACCINES” (priority 2008, published 2010):
# Structures can show the parent of a compound that is named as a salt. Where no end group is shown, it is not given here.
# Experiments:
# [1] = test system: anti-amphetamine antibodies; assay: Competitive ELISA for specificity of anti-amphetamine antibodies; type: binding; conditions: 2° sera of mice immunised with lipidated amphetamine-TH(MV); coat 5 μg per ml
# [2] = test system: anti-DNP antibodies; assay: Inhibition ELISA for specificity of anti-DNP antibodies on DNP-BSA coated plates; type: binding, BALB/c mice; conditions: for inhibition of antibody binding to DNP-BSA coated plates: inhibitor dilutions from 25 nmol/well; for inhibition of antibody binding to DNP-BSA coated plates by irrelevant inhibitors: sera not specified
# Protocol: Competitive ELISA assays involved an extra step whereby ½ log dilutions of inhibitors in BSA5PBST beginning at 25 nmol/well were added to a constant limiting concentration of antibody in BSA5PBST and incubated for 2 hours on separate polyvinyl plates during the blocking step of a regular ELISA. 50 μl/well of the inhibitor and sera mixtures were then transferred to coated, blocked and washed plates and incubated overnight. Plates were then conjugated with HRP-RαM, developed, and read as per ELISA. The percentage of inhibition was determined by the following formula: […]
# Inhibition ELISAs were utilised to determine whether antibody-titres detected in previous direct-binding ELISAs consisted mainly of anti-DNP antibodies. All immunogens (peptide- and protein-based) incorporated the 2,4-DNP isomer.
# Sera were incubated with different amounts of various inhibitors (FIG. 14) before addition to DNP-BSA coated plates.
# [3] = 2° sera of BALB/c mice immunised with DNP-BSA in CFA
# [4] = 2° sera of BALB/c mice immunised with lipidated DNP-TH(MV)
molecule,measurement,setting,value
COC(=O)[C@H]1[C@@H](OC(=O)c2ccccc2)C[C@@H]2CC[C@H]1N2C [cocaine hydrochloride],inhibition of antibody binding to amphetamine-TH(ova) coated plates,[1],No inhibition
"O=C(O)CCCCCNc1ccc([N+](=O)[O-])cc1[N+](=O)[O-] [2,4-DNP-ahx, 2,4-dinitrophenol-ε-amino-n-caproic acid]",inhibition of antibody binding to DNP-BSA coated plates,[2]; [3],approximately 55%
same,inhibition of antibody binding to DNP-BSA coated plates,[2]; [4],approximately 80%
N[C@@H](Cc1ccc(O)cc1)C(=O)O [tyrosine],inhibition of antibody binding to DNP-BSA coated plates by irrelevant inhibitors,[2],no inhibition
Oc1ccccc1 [phenol],inhibition of antibody binding to DNP-BSA coated plates by irrelevant inhibitors,[2],no inhibition
"C[C@H](N)Cc1ccccc1 [Amphetamine-sulfate, D-amphetamine sulfate]",inhibition of antibody binding to amphetamine-TH(ova) coated plates,[1],low level of inhibition
CN[C@@H](C)Cc1ccccc1 [Methamphetamine hydrochloride],inhibition of antibody binding to amphetamine-TH(ova) coated plates,[1],No inhibition
"O=[N+]([O-])c1ccc(O)c([N+](=O)[O-])c1 [2,4-DNP, 2,4-dinitrophenol]",inhibition of antibody binding to DNP-BSA coated plates,[2]; [3],No inhibition
same,inhibition of antibody binding to DNP-BSA coated plates,[2]; [4],35%
"amphetamine-TH(Flu): succinyl amphetamine-Lys-TH(Flu) peptide, no lipid; coating antigen and inhibitor (KALNNRFQIKGVELKS; not fully specified)",inhibition of antibody binding to amphetamine-TH(ova) coated plates,[1],lower level of inhibition
